The results in this text go back to patent US9676751B2, “2-amino-3-ester-pyridl orexin receptor antagonists” (MERCK SHARP & DOHME CORP., priority 2013, dated 2017).

The target of one assay is T1, human orexin-2 receptor (Homo sapiens, UniProt O43614).
T1 construct: expressed in transfected cells; host or cells: CHO cells
T1 sequence (O43614 1-444): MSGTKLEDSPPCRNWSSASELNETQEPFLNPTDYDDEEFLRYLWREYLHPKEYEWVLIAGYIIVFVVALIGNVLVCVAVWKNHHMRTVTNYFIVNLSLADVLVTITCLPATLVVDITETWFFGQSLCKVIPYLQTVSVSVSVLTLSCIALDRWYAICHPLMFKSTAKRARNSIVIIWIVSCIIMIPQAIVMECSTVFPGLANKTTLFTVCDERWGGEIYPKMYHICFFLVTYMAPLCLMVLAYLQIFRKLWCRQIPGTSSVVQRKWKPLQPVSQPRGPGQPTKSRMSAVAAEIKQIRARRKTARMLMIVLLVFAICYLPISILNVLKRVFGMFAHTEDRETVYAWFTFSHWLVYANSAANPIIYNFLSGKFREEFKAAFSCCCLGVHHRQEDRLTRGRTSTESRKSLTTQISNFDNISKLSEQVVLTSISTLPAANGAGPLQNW
Nature of the assay: FLIPR Ca2+ Flux Assay, CHO cells expressing the human orexin-2 receptor. The class given is cell-based. The following applies: agonist 70 pM Ala-6,12 orexin-A, read-out: hOX2R FLIPR IC50. How it is done:
The utility of the compounds in accordance with the present invention as orexin receptor OX1R and/or OX2R antagonists may be readily determined without undue experimentation by methodology well known in the art, including the “FLIPR Ca^2+ Flux Assay” (Okumura et al., Biochem. Biophys. Res. Comm. 280:976-981, 2001). In a typical experiment the OX1 and OX2 receptor antagonistic activity of the compounds of the present invention was determined in accordance with the following experimental method. For intracellular calcium measurements, Chinese hamster ovary (CHO) cells expressing the rat orexin-1 receptor or the human orexin-2 receptor, are grown in Iscove's modified DMEM containing 2 mM L-glutamine, […], 1% hypoxanthine-thymidine supplement, 100 U/ml penicillin, 100 μg/ml streptomycin and 10% heat-inactivated fetal calf serum (FCS). The cells are seeded at 20,000 cells/well into Becton-Dickinson black 384-well clear bottom sterile plates coated with poly-D-lysine. All reagents were from GIBCO-Invitrogen Corp. The seeded plates are incubated overnight at 37° C. and 5% CO2. Ala-6,12 human orexin-A as the agonist is prepared as a 1 mM stock solution in 1% bovine serum albumin (BSA) and diluted in assay buffer (HBSS containing 20 mM HEPES, 0.1% BSA and 2.5 mM probenecid, pH7.4) for use in the assay at a final concentration of 70 pM. Test compounds are prepared as 10 mM stock solution in DMSO, then diluted in 384-well plates, first in DMSO, then assay buffer. On the day of the assay, cells are washed 3 times with 100 μl assay buffer and then incubated for 60 min (37° C., 5% CO2) in 60 μl assay buffer containing 1 μM Fluo-4AM ester, 0.02% pluronic acid, and 1% BSA. The dye loading solution is then aspirated and cells are washed 3 times with 100 μl assay buffer. 30 μl of that same buffer is left in each well. Within the Fluorescent Imaging Plate Reader (FLIPR, Molecular Devices), test compounds are added to the plate in a volume of 25 μl, incubated for 5 min and finally 25 μl of agonist is added. Fluorescence is measured for each well at 1 second intervals for 5 minutes and the height of each fluorescence peak is compared to the height of the fluorescence peak induced by 70 pM Ala-6,12 orexin-A with buffer in place of antagonist. For each antagonist, IC50 value (the concentration of compound needed to inhibit 50% of the agonist response) is determined. Alternatively, compound potency can be assessed by a radioligand binding assay (described in Bergman et. al. Bioorg. Med. Chem. Lett. 2008, 18, 1425-1430) in which the inhibition constant (Ki) is determined in membranes prepared from CHO cells expressing either the OX1 or OX2 receptor. The intrinsic orexin receptor antagonist activity of a compound which may be used in the present invention may be determined by these assays.

The target of a further assay is T2, hOX1R (Homo sapiens, UniProt O43613).
T2 construct: expressed in transfected cells; host or cells: CHO cells
T2 sequence (O43613 1-425): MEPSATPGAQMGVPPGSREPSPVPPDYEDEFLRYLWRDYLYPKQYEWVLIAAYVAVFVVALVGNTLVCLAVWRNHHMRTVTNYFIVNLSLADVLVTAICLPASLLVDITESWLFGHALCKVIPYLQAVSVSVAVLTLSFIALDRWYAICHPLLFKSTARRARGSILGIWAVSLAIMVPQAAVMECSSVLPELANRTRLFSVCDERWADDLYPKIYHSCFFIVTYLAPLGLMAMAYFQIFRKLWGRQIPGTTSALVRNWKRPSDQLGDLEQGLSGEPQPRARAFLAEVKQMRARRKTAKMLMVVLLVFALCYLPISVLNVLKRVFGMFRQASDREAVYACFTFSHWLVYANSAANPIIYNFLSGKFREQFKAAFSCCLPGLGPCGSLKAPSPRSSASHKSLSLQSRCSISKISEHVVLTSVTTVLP
Nature of the assay: FLIPR Ca2+ Flux Assay, CHO cells expressing the orexin-1 receptor. The class given is cell-based. As to conditions: agonist 70 pM Ala-6,12 orexin-A. (In general: Calcium flux is commonly read through the fluorescence of an indicator in the cells.)

pIC50: −log10 of the molar value.

Consider `COC(=O)c1c(OC)ccnc1N[C@@H]1CC[C@@H](C)N(C(=O)c2sccc2-c2ncccn2)C1` [Example 16, methyl 4-methoxy-2-({(3R,6R)-6-methyl-1-[(3-pyrimidin-2-ylthiophen-2-yl)carbonyl]piperidin-3-yl}amino)pyridine-3-carboxylate], for which the negative logarithm of the IC50 (pIC50) at human orexin-2 receptor is 7.40; at hOX1R it was 6.40.

`COC(=O)c1c(OC)ccnc1N[C@@H]1CC[C@@H](C)N(C(=O)c2cccc(F)c2-c2noc(C)n2)C1` [Example 9, methyl 2-{[(3R,6R)-1-{[3-fluoro-2-(5-methyl-1,2,4-oxadiazol-3-yl)phenyl]carbonyl}-6-methylpiperidin-3-yl]amino}-4-methoxypyridine-3-carboxylate]: the values for the pIC50 at human orexin-2 receptor and at hOX1R were 7.24 and 6.63, respectively.

Consider `COC(=O)c1c(OC)ccnc1N[C@@H]1CC[C@@H](C)N(C(=O)c2ccccc2-n2nccn2)C1` [Example 2, Methyl 4-methoxy-2-{[(3R,6R)-6-methyl-1-{[2-(2H-1,2,3-triazol-2-yl)phenyl]carbonyl}-piperidin-3-yl]amino}pyridine-3-carboxylate], for which the pIC50 is 7.60 on human orexin-2 receptor and 7.28 on hOX1R.

For orientation: pIC50 means the IC50 on a negative log10 scale, so that one unit is a factor of ten.
